Laboratory results reported in the NIST ThermoML archive (doi:10.1021/je500381c).

Experiment: refractive index (Na D-line) (dimensionless); xn = mol fraction of the nth substance listed
Details: 100 kPa, Liquid, Standard Abbe refractometry

CC12CC3CC(C)(C1)CC(C)(C3)C2 [1,3,5-trimethyladamantane] + CCCCCCCO
refractive index
Details	x2 = 0	x2 = 0.1001	x2 = 0.2001	x2 = 0.3002	x2 = 0.4004	x2 = 0.5001	x2 = 0.6002	x2 = 0.7001	x2 = 0.7999	x2 = 0.9002
293.15 K	1.4736	1.4695	1.4657	1.4617	1.4573	1.4524	1.4476	1.4424	1.4366	1.4303
298.15 K	1.4715	1.4677	1.4637	1.4597	1.4552	1.4504	1.4458	1.4405	1.4348	1.4286
303.15 K	1.4695	1.4652	1.4614	1.4574	1.453	1.4484	1.4434	1.4382	1.4325	1.4262
313.15 K	1.4649	1.4612	1.4571	1.453	1.4487	1.4438	1.4389	1.4341	1.4283	1.4224
323.15 K	1.4612	1.4569	1.453	1.4489	1.4445	1.4398	1.435	1.4299	1.4244	1.4182
333.15 K	1.4568	1.4526	1.4485	1.4444	1.4401	1.4354	1.4303	1.4255	1.4195	1.4138

CC12CC3CC(C)(C1)CC(C)(C3)C2 [1,3,5-trimethyladamantane] + OCC1CCCCC1
refractive index
Details	x2 = 0	x2 = 0.1	x2 = 0.2001	x2 = 0.2997	x2 = 0.4	x2 = 0.4994	x2 = 0.5991	x2 = 0.7	x2 = 0.801	x2 = 0.8927
293.15 K	1.4736	1.4727	1.4718	1.4711	1.4703	1.4694	1.4684	1.4673	1.4661	1.465
298.15 K	1.4715	1.4708	1.47	1.4691	1.4681	1.4672	1.4663	1.4655	1.4641	1.4631
303.15 K	1.4695	1.4686	1.4676	1.4669	1.4659	1.465	1.4643	1.4632	1.4621	1.4609
313.15 K	1.4649	1.4641	1.4633	1.4625	1.4618	1.4608	1.46	1.459	1.458	1.4568
323.15 K	1.4612	1.46	1.4589	1.4582	1.4573	1.4565	1.4556	1.4549	1.4539	1.4528
333.15 K	1.4568	1.4552	1.4545	1.4538	1.453	1.4522	1.4513	1.4504	1.4492	1.4486

CC12CC3CC(C1)CC(C)(C3)C2 [1,3-dimethyladamantane] + CCCCCCCO
refractive index
Details	x2 = 0	x2 = 0.1001	x2 = 0.1997	x2 = 0.2998	x2 = 0.3997	x2 = 0.4997	x2 = 0.6002	x2 = 0.7	x2 = 0.7996	x2 = 0.8999
293.15 K	1.4776	1.4735	1.4696	1.4642	1.4591	1.4541	1.4483	1.4427	1.4365	1.4299
298.15 K	1.4757	1.4714	1.4678	1.4624	1.4572	1.4519	1.4468	1.4411	1.4351	1.4282
303.15 K	1.4734	1.4695	1.4654	1.4603	1.4551	1.4495	1.4442	1.4389	1.4333	1.4265
313.15 K	1.4691	1.4646	1.4608	1.4558	1.4508	1.4457	1.4402	1.4347	1.4288	1.4223
323.15 K	1.4651	1.4606	1.4567	1.4514	1.4464	1.4411	1.4359	1.4301	1.4244	1.4178
333.15 K	1.461	1.4564	1.4527	1.4473	1.4422	1.437	1.4316	1.4262	1.4206	1.4141
